The source of these data is patent US20240352075A1, “PACAP1-23 ANALOG GLYCOPEPTIDES AND METHODS FOR PRODUCING AND USING THE SAME” (priority 2021, published 2024).

Values joined by “and” are separate entries in the source; they are usually repeats but may differ in a detail not shown here. Identical values can stand only once. Where a SMILES comes first, the peptide text is derived from it. [ ]: non-standard residue; d: D form. The star is where a group is joined. ξ: configuration not given here. X2 = OCC1OC(OC2C(CO)OC(*)C(O)C2O)C(O)C(O)C1O; X1 = OCC1OC(*)C(O)C(O)C1O; Nva = CCC[C@H](N)C(=O)O; ξS = NC(CO)C(=O)O; Sar = CNCC(=O)O

What all share (assay type): cell-based
Conditions in all cases: for Emax: CHO

In one test the target is T1, PAC1 (Homo sapiens, UniProt P41586).
T1 construct: 3xHA (N)
T1 sequence (P41586 21-468): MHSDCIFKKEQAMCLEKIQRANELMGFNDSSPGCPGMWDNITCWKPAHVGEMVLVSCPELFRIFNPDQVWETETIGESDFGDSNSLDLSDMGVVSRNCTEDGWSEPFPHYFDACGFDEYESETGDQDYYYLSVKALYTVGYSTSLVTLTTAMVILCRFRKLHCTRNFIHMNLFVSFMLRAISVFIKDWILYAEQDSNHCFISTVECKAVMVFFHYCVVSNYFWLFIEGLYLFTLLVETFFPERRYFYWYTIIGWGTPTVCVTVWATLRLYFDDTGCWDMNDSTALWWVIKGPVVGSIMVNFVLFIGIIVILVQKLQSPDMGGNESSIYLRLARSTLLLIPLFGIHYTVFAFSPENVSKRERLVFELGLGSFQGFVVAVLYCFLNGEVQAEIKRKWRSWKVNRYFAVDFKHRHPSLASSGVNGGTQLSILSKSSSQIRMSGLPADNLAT
Put plainly: cAMP accumulation assay in CHO cells stably expressing PAC1. (In general: Cyclic AMP is a second messenger, typically raised through Gs and lowered through Gi signalling.)

A further test deals with T2, VPAC2 (Homo sapiens, UniProt P41587).
T2 construct: 3xHA (N)
T2 sequence (P41587 24-438): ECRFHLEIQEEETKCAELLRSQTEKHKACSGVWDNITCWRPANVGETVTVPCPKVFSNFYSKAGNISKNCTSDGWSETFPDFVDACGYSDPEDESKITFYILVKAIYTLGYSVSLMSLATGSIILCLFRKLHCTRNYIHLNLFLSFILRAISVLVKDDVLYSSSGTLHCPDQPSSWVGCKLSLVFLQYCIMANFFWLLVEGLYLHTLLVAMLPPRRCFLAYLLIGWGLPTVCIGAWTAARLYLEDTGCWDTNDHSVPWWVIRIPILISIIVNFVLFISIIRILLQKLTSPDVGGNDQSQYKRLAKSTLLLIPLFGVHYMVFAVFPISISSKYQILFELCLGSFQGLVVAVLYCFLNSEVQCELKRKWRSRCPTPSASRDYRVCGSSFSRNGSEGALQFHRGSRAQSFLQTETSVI
Put plainly: cAMP accumulation assay in CHO cells stably expressing VPAC2.

A further test addresses T3, VPAC1 (Homo sapiens, UniProt P32241).
T3 construct: 3xHA (N)
T3 sequence (P32241 31-457): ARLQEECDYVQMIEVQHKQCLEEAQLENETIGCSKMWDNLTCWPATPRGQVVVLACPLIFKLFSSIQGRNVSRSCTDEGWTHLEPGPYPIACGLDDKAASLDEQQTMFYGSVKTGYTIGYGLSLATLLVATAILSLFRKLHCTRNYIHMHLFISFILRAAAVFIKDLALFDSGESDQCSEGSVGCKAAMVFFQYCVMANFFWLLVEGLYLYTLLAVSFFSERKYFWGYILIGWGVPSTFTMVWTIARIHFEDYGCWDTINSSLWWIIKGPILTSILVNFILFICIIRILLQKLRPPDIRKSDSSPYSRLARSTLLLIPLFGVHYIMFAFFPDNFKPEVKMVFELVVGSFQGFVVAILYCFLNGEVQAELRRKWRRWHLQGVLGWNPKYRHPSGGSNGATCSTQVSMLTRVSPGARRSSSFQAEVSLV
The test is described as follows: cAMP accumulation assay in CHO cells stably expressing VPAC1.

[1] abbreviates: Table 3, in vitro cAMP stimulation, NC = No Convergence (no activity).

With `CCC[C@H](NC(=O)[C@H](CCC(N)=O)NC(=O)[C@H](CCCCN)NC(=O)[C@H](CCCNC(=N)N)NC(=O)[C@H](Cc1ccc(O)cc1)NC(=O)[C@H](CCCNC(=N)N)NC(=O)[C@H](CO)NC(=O)[C@H](Cc1ccc(O)cc1)NC(=O)[C@H](CO)NC(=O)[C@H](CC(=O)O)NC(=O)[C@@H](NC(=O)[C@H](Cc1ccccc1)NC(=O)[C@@H](NC(=O)CNC(=O)[C@H](CC(=O)O)NC(=O)[C@H](CO)NC(=O)[C@@H](N)Cc1c[nH]cn1)[C@@H](C)CC)[C@@H](C)O)C(=O)N[C@@H](C)C(=O)N[C@H](C(=O)N[C@@H](CCCCN)C(=O)N[C@@H](CCCCN)C(=O)N[C@@H](Cc1ccc(O)cc1)C(=O)N[C@@H](CC(C)C)C(=O)N[C@@H](CO)C(N)=O)C(C)C` [CRA-DV-3022] (H-HSDGIFTDSYSRYRKQ[Nva]AVKKYLS-NH2), the maximal response (Emax) on PAC1 was 198%; on VPAC2 it was 111%; at VPAC2 (setting [1]), 91%; at VPAC1, 42% and 94%. Further, the EC50 on PAC1 (Table 3, in vitro cAMP stimulation) amounted to 2.2 nM; on VPAC2 (Table 1, cAMP stimulation, CHO cells, NC not defined here (Table 3: No Convergence)) it was 571 nM; on VPAC2 (setting [1]), 571 nM; on VPAC1 (Table 1, cAMP stimulation, CHO cells) it was 5.2 nM.

`CCC[C@H](NC(=O)[C@H](CCC(N)=O)NC(=O)[C@H](CCCCN)NC(=O)[C@H](CCCNC(=N)N)NC(=O)[C@H](Cc1ccc(O)cc1)NC(=O)[C@H](CCCNC(=N)N)NC(=O)[C@H](CO)NC(=O)[C@H](Cc1ccc(O)cc1)NC(=O)[C@H](CO)NC(=O)[C@H](CC(=O)O)NC(=O)[C@@H](NC(=O)[C@H](Cc1ccccc1)NC(=O)[C@@H](NC(=O)CNC(=O)[C@H](CC(=O)O)NC(=O)[C@H](CO)NC(=O)[C@@H](N)Cc1c[nH]cn1)[C@@H](C)CC)[C@@H](C)O)C(=O)N[C@@H](C)C(=O)N[C@H](C(=O)N[C@@H](CCCCN)C(=O)N[C@@H](CCCCN)C(=O)N[C@@H](Cc1ccc(O)cc1)C(=O)N[C@@H](CC(C)C)C(=O)NC(COC1OC(CO)C(O)C(O)C1O)C(N)=O)C(C)C` (stereo partly shown) [CRA-DV-3023] (H-HSDGIFTDSYSRYRKQ[Nva]AVKKYL[ξS](X1)-NH2): the maximal effect (Emax) stood at 181% on PAC1, 90% on VPAC2 (setting [1]) and 105% on VPAC1.

For the compound `CCC[C@H](NC(=O)[C@H](CCC(N)=O)NC(=O)[C@H](CCCCN)NC(=O)[C@H](CCCNC(=N)N)NC(=O)[C@H](Cc1ccc(O)cc1)NC(=O)[C@H](CCCNC(=N)N)NC(=O)[C@H](CO)NC(=O)[C@H](Cc1ccc(O)cc1)NC(=O)[C@H](CO)NC(=O)[C@H](CC(=O)O)NC(=O)[C@@H](NC(=O)[C@H](Cc1ccccc1)NC(=O)[C@@H](NC(=O)CNC(=O)[C@H](CC(=O)O)NC(=O)[C@H](CO)NC(=O)[C@@H](N)Cc1c[nH]cn1)[C@@H](C)CC)[C@@H](C)O)C(=O)N[C@@H](C)C(=O)N[C@H](C(=O)N[C@@H](CCCCN)C(=O)N[C@@H](CCCCN)C(=O)N[C@@H](Cc1ccc(O)cc1)C(=O)N[C@@H](CC(C)C)C(=O)NC(COC1OC(CO)C(O)C(O)C1O)C(=O)NC(COC1OC(CO)C(O)C(O)C1O)C(N)=O)C(C)C` (stereo partly shown) [CRA-DV-3024] (H-HSDGIFTDSYSRYRKQ[Nva]AVKKYL[ξS](X1)[ξS](X1)-NH2), the figures for the maximum response (Emax) at PAC1, on VPAC2 (setting [1]) and at VPAC1 were 152%, 130% and 127%, respectively.

Regarding `CCC[C@H](NC(=O)[C@H](CCC(N)=O)NC(=O)[C@H](CCCCN)NC(=O)[C@H](CCCNC(=N)N)NC(=O)[C@H](Cc1ccc(O)cc1)NC(=O)[C@H](CCCNC(=N)N)NC(=O)[C@H](CO)NC(=O)[C@H](Cc1ccc(O)cc1)NC(=O)[C@H](CO)NC(=O)[C@H](CC(=O)O)NC(=O)[C@@H](NC(=O)[C@H](Cc1ccccc1)NC(=O)[C@@H](NC(=O)CN(C)C(=O)[C@H](CC(=O)O)NC(=O)[C@H](CO)NC(=O)[C@@H](N)Cc1c[nH]cn1)[C@@H](C)CC)[C@@H](C)O)C(=O)N[C@@H](C)C(=O)N[C@H](C(=O)N[C@@H](CCCCN)C(=O)N[C@@H](CCCCN)C(=O)N[C@@H](Cc1ccc(O)cc1)C(=O)N[C@@H](CC(C)C)C(=O)NC(COC1OC(CO)C(OC2OC(CO)C(O)C(O)C2O)C(O)C1O)C(N)=O)C(C)C` (stereo partly shown) [CRA-TG-3027] (H-HSD[Sar]IFTDSYSRYRKQ[Nva]AVKKYL[ξS](X2)-NH2), the maximal effect (Emax) came to 134% on PAC1 and 90% at VPAC1.

As usually defined, the Emax is the greatest response seen or fitted, relative to the assay's reference. Usually EC50 stands for the midpoint of the concentration-response curve. Lower therefore signals higher potency in that assay.
